Columns and labels:
[1] = tested on: Gaeumannomyces graminis var. tritici (Ggt); experiment: In vitro Assay: mycelial growth of Ggt on minimal media agar plates containing test compound; type: cell-based; conditions: dark, 19-20° C., 4 to 5 days, diameter of mycelial growth; for In vitro (ppm) 0.1, Percent Inhibition / inhibition at 0.1 ppm: 0.1 ppm in minimal media agar; for In vitro (ppm) 1, Percent Inhibition / inhibition at 1 ppm: 1 ppm in minimal media agar; for In vitro (ppm) 10, Percent Inhibition / inhibition at 10 ppm: 10 ppm in minimal media agar; for inhibition at 0.1 ppm / inhibition at 1 ppm / inhibition at 10 ppm: Gaeumannomyces graminis; for inhibition at 0.1 ppm: read-out: In vitro (ppm) 0.1, Percent Inhibition; for inhibition at 1 ppm: read-out: In vitro (ppm) 1, Percent Inhibition; for inhibition at 10 ppm: read-out: In vitro (ppm) 10, Percent Inhibition
Summary of the method: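 Compounds added from acetone stock into minimal (Czapek Dox) agar; plates inoculated with three 4-mm Ggt plugs, incubated in dark at 19-20° C for 4 to 5 days. Colony diameter measured; Percent Inhibition = [1-((treated mm −4)/(control mm −4))]×100.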

Ggt = experiment: In vivo Assay: control of Ggt on wheat grown in pots of Ggt-infested soil, root disease rating; parameters: species or system Gaeumannomyces graminis var. tritici; conditions: 0.5 mg active ingredient per pot, 'Bergen' or 'Anza' wheat in Ggt-infested soil, after four weeks, vs untreated control; for pest or weed control at 0.5 mg/pot: Gaeumannomyces graminis, 672 h, read-out: In vivo, percent disease control
Procedure: Compounds are tested for control of Ggt on ‘Bergen’ or ‘Anza’ varieties of wheat grown in 3-inch square pots containing soil infested with Ggt. The infestation is accomplished by mixing the soil with an inoculum prepared by growing Ggt on ¼ strength potato dextrose agar (4.875 g potato dextrose agar, 5.0 g Bacto agar, 500 mL distilled, deionized water) in plates and using plugs from the plates to infest sterile oats (400 cc whole oats, 350 mL deionized water, autoclaved). After a one-month incubation period at room temperature, the oats are dried and mixed with the soil at 4% v/v. Four wheat seeds are placed on top of the soil in each pot. The test compounds are prepared as an 1:9 acetone/water v/v solution containing 0.18% Tween® 20 to provide a treatment rate of 0.5 mg active ingredient per pot, treated with 3 mL test solution per pot. Five pots are used for each treatment level and the controls, which are untreated, inoculated and non-inoculated pots. After one hour drying time, the seeds are covered with more of the appropriate soil and a layer of vermiculite. The pots are placed in a growth chamber and watered each day. After four weeks, each pot is evaluated for evidence of disease by examination of the seminal roots of each plant under a dissecting microscope. A 0 to 5 rating scale having the following meanings is used:
0=no runner hyphae or lesions present
1=runner hyphae and a few small lesions present on <10% of root system
2=runner hyphae and small lesions present on 10-25% of root system
3=runner hyphae and lesions present on 25-50% of root system
4=runner hyphae and many, large, coalescing lesions on >50% of root system
5=root system and culm completely inundated with lesions and runner hyphae
From each set of five replicates a high and low score is eliminated and a replicate mean is calculated by the average of the remaining three scores. This mean score is then compared to the untreated control score and a percent disease control is calculated.

Structure (SMILES) | In vitro (ppm) 0.1, Percent Inhibition [1] | In vitro (ppm) 1, Percent Inhibition [1] | In vitro (ppm) 10, Percent Inhibition [1] | In vivo, percent disease control (Ggt) | inhibition at 0.1 ppm [1] | inhibition at 1 ppm [1] | inhibition at 10 ppm [1] | pest or weed control at 0.5 mg/pot (Ggt)
CN(C)NC(=O)c1c(Cl)cccc1[Si](C)(C)C [Example 99, 2-Chloro-6-(trimethylsilyl)-2,2-dimethylhydrazide-benzoic acid] | 5% | 72% | 95% | 59% | – | – | – | –
CCCNC(=O)c1c(Cl)cccc1[Si](C)(C)C [Example 26, 2-Chloro-N-propyl-6-(trimethylsilyl)benzamide] | – | – | – | – | 95% | 95% | 97% | 99%
CCN(Cc1ccccc1)C(=O)c1c(Cl)cccc1[Si](C)(C)C [Example 35, 2-Chloro-N-ethyl-N-(phenylmethyl)-6-(trimethylsilyl)benzamide] | – | – | – | – | 3% | 7% | 93% | 46%
CCNC(=O)c1c(Cl)ccc([N+](=O)[O-])c1[Si](C)(C)C [Example 215, 6-Chloro-N-ethyl-3-nitro-2-(trimethylsilyl)benzamide] | – | – | – | – | 46% | 96% | 100% | 57%
C[Si](C)(C)c1cccc(Cl)c1C(=O)Nc1ccccc1 [Example 16, 2-Chloro-N-phenyl-6-(trimethylsilyl)-benzamide] | – | – | – | – | 11% | 27% | 76% | 3%
CCN(CC)C(=O)c1c(Br)ccc(F)c1[Si](C)(C)C [Example 37, 6-Bromo-N,N-diethyl-3-fluoro-2-(trimethylsilyl)benzamide] | – | – | – | – | 17% | 63% | 87% | 83%
CCN(SC)C(=O)c1c(Cl)cccc1[Si](C)(C)C [Example 172, 2-Chloro-N-ethyl-N-(methylthio)-6-(trimethylsilyl)benzamide] | – | – | – | – | 94% | 100% | 100% | 99%
C=CCONC(=O)c1c([Si](C)(C)C)ccc(Cl)c1Cl [Example 204, 2,3-Dichloro-N-(2-propenyloxy)-6-(trimethylsilyl)benzamide] | – | – | – | – | < 0% | < 0% | 74% | 43%
CC(C)N(O)C(=O)c1c(Cl)cccc1[Si](C)(C)C [Example 167, 2-Chloro-N-hydroxy-N-(1-methylethyl)-6-(trimethylsilyl)benzamide] | – | – | – | – | 46% | 86% | 96% | 93%
CCN(CC)C(=O)c1c(Cl)cccc1[Si](C)(C)C [Example 39, 2-Chloro-N,N-diethyl-6-(trimethylsilyl)benzamide] | – | – | – | – | 49% | 82% | 92% | 99%
CCN(CC)C(=O)c1c(Cl)ccc[c]1[Sn]([CH3])([CH3])[CH3] [Example 7, 2-Chloro-N,N-diethyl-6-(trimethylstannyl)benzamide] | 42% | 77% | 100% | 93% | – | – | – | –
C[Si](C)(C)c1cccc(Cl)c1C(=O)NCCF [Example 155, 2-Chloro-N-(2-fluoroethyl)-6-(trimethylsilyl)benzamide] | – | – | – | – | < 0% | 64% | 90% | 93%
CCOc1ccccc1NC(=O)c1c(Cl)cccc1[Si](C)(C)C [Example 157, 2-Chloro-N-(2-ethoxyphenyl)-6-(trimethylsilyl)benzamide] | – | – | – | – | 7% | 23% | 91% | 0%
CCN(CC)C(=O)c1c(Cl)cccc1C[Si](C)(C)C [Example 166, 2-Chloro-N,N-diethyl-6-[(trimethylsilyl)methyl]benzamide] | – | – | – | – | 4% | < 0% | 73% | 15%
C[Si](C)(C)c1cccc(Cl)c1C(=O)NCC1CC1 [Example 150, 2-Chloro-N-(cyclopropylmethyl)-6-(trimethylsilyl)benzamide] | – | – | – | – | 34% | 74% | 83% | 96%
CCN(CC)C(=O)c1c(C)cccc1C(C)(C)C [Example 6, 2-(1,1-Dimethylethyl)-N,N-diethyl-6-methylbenzamide] | – | – | – | – | 7% | 2% | 47% | 37%
CCN(CC)C(=O)c1c(CF)cccc1[Si](C)(C)C [Example 98, N,N-Diethyl-2-(fluoromethyl)-6-(trimethylsilyl)benzamide] | – | – | – | – | 22% | 81% | 100% | 97%
CCN(CC)C(=O)c1c(Cl)cccc1[Si](CC)(CC)CC [Example 66, N,N-Diethyl-2-chloro-6-(triethylsilyl)benzamide] | – | – | – | – | < 0% | < 0% | 58% | 3%
CCN(CC)C(=S)c1cccc(F)c1[Si](C)(C)C [Example 74, N,N-Diethyl-3-fluoro-2-(trimethylsilyl)thiobenzamide] | – | – | – | – | 7% | 31% | 93% | 47%
CCNC(=O)c1c(Cl)cccc1[Si](C)(C)C [Example 45, 2-Chloro-N-ethyl-6-(trimethylsilyl)benzamide] | – | – | – | – | 100% | 100% | 100% | 97%
CCCN(CCC)C(=O)c1c(Cl)cccc1[Si](C)(C)C [Example 36, 2-Chloro-N,N-dipropyl-6-(trimethylsilyl)benzamide] | – | – | – | – | 26% | 69% | 100% | 88%
CCCCNC(=O)c1c(Cl)cccc1[Si](C)(C)C [Example 20, N-Butyl-2-chloro-6-(trimethylsilyl)-benzamide] | – | – | – | – | 7% | 14% | 61% | 36%
C[Si](C)(C)c1cccc(Cl)c1C(=O)NCC(F)(F)F [Example 25, 2-Chloro-N-(2,2,2-trifluoro-ethyl)-6-(trimethylsilyl)-benzamide] | – | – | – | – | 19% | 15% | 89% | 56%
CCNC(=O)c1c([Si](C)(C)C)ccc(Br)c1Cl [Example 220, 3-Bromo-2-chloro-N-ethyl-6-(trimethylsilyl)benzamide] | – | – | – | – | 75% | 100% | 100% | 97%
CCN(CC)C(=O)c1c(F)ccc(F)c1[Si](C)(C)C [Example 56, N,N-Diethyl-3,6-difluoro-2-(trimethylsilyl)benzamide] | – | – | – | – | 10% | 31% | 74% | 91%
CCNC(=O)c1sc(Cl)cc1[Si](C)(C)C [Example 254, 5-Chloro-N-ethyl-3-(trimethylsilyl)-2-thiophenecarboxamide] | – | – | – | – | 97% | 97% | 100% | 40%
CCN(CC)C(=O)c1cccc(F)c1[Si](C)(C)C [Example 4, N,N-Diethyl-3-fluoro-2-(trimethylsilyl)benzamide] | – | – | – | – | < 0% | < 0% | 57% | 54%
CCNC(=O)c1c(Cl)ccc(Cl)c1[Si](C)(C)C [Example 200, 3,6-Dichloro-N-ethyl-2-(trimethylsilyl)benzamide] | – | – | – | – | 92% | 100% | 100% | 65%

From patent publication US6410558B1, “Fungicides for the control of take-all disease of plants” (Monsanto Technology LLC, priority 1991, dated 2002)
